Assay results as given in publication PMC4608580, “Synthesis and Evaluation of Biological Activity of Antimicrobial – Pro-Proliferative Peptide Conjugates” (PLoS ONE, 2015).
Values after ≈ are worked out from the molar mass of the structure shown. Residues, ends and D or L forms follow the SMILES beside them.

What was measured:
[1] = test system: B. cereus; assay type: cell-based; conditions: 24 h
Procedure: (§1) Luria-Bertani broth (LB) and Sabouraud Dextrose broth (SB) (Biocorp, Poland) were used for cultivation of bacteria and fungi strains, respectively. Antimicrobial activity of peptides was analyzed through determination of MIC (minimal inhibitory concentration) parameter according to the standard microdilution technique performed on 96-well plates. Mueller-Hinton broth (MHB) was used as the working medium for all bacterial strains, while in case of fungi it was additionally supplemented with 2% glucose.
(§2) Briefly, inoculum was prepared from freshly grown cultures of microorganisms being at their exponential phase of growth. Each well of 96-well plates containing 100 μL of serially diluted peptides in PBS (phosphate buffer saline) at concentration ranging from 2 to 250 μg/mL were inoculated with 100 μL of approximately 10^5 CFU/mL of bacterial suspension or about 2.5 x 10^3 CFU/mL of fungi suspended in a double concentrated Mueller-Hinton broth (supplemented with 2% glucose for Candida spps.). Then plates were incubated overnight at 37°C and absorbance was read at 590 nm after 24 h. Cultures without peptide were treated as positive control, while uninoculated Mueller-Hinton broth was defined as negative control. All measurements were run at least in triplicate.
(§3) All peptides were screened against the wide range of microorganisms, including Gram-negative, Gram-positive bacteria and fungi from Candida species (Table 2). Broth microdilution method for MIC determination was used as a standard procedure. All assays were performed on liquid Mueller-Hinton broth, which was additionally supplemented with 2% glucose when fungicidal activity towards Candida spps. was analyzed.

[2] = test system: Escherichia coli (PCM 2057); assay type: cell-based; conditions: PCM 2057, 24 h
Source text: (§4) Escherichia coli (PCM 2057), Staphylococcus aureus (PCM 2054), Staphylococcus epidermidis (PCM 2118), Pseudomonas aeruginosa (PCM 499) were obtained from Polish Collection of Microorganisms. Fungi strains Candida albicans (CCM 8186), Candida glabrata (CCM 8270), Candida parapsilosis (CCM 8260), Candida krusei (CCM 8271), Candida tropicalis (CCM 8264) were acquired from Czech Collection of Microorganisms.
as §1, §2, §3

[3] = test system: Pseudomonas aeruginosa (PCM 499); assay type: cell-based; conditions: PCM 499, 24 h
Source text: as §4, §1, §2, §3

[4] = test system: Staphylococcus aureus (PCM 2054); assay type: cell-based; conditions: PCM 2054, 24 h
Source text: as §4, §1, §2, §3

[5] = test system: Staphylococcus epidermidis (PCM 2118); assay type: cell-based; conditions: PCM 2118, 24 h
Source text: as §4, §1, §2, §3

[6] = test system: immortalized human HaCaT keratinocytes; experiment: Cell proliferation assay (MTT); assay type: cell-based; conditions: 72 h, serum-free DMEM, peptide at 1–25 μg/mL
Procedure: (§5) In our study two kind of cells were used: immortalized human HaCaT keratinocytes (DKFZ Heidelberg, Germany) and primary dermal fibroblasts obtained from 3 healthy donors. Both types of the used cell lines were grown in Dulbecco's modified Eagle's medium (DMEM) (Sigma–Aldrich, Germany), that contained […] of glucose, […] of L-glutamine, sodium pyruvate and sodium bicarbonate. Additionally, medium was supplemented with 10% of FCS (fetal calf serum, Sigma-Aldrich, Germany), 100 U/mL of penicillin and 100 μg/mL streptomycin (Sigma-Aldrich, Germany). The cells were grown in culture dishes (BD, USA) under standard conditions in a humidified atmosphere with 5% CO2 at 37°C and medium was changed every 2 days.
(§6) The fibroblasts and keratinocytes were seeded at density of 4500 and 6000 cells per well, respectively, into 96-well plates suspended in a medium supplemented with 10% of FCS. After 24 h the media were exchanged with serum- and antibiotic- free DMEM and tested peptides dissolved in PBS were added yielding final concentration ranging from 1 to 50 μg/mL. Cells were incubated for the next 24 hours, when the medium was exchanged again and fresh portion of peptides (used at the same concentrations as previously) was added. Incubation was continued for the next 48 hours (the overall time of cell exposition to peptide was 72 h). At the end of the experiment cells were treated with 20 μL of MTT (5 mg/mL in PBS). After 3 h at 37°C under 5% CO2 medium was discarded and replaced by 6mM HCl in isopropanol. After 15 min when the purple crystals of formazan were fully solubilized, absorbance was read at 570 nm with a plate reader. The optical density reflects the level of cell viability as MTT is converted in purple formazan product only in the presence of viable mitochondria of the living cells.
Fig 1 Pro-proliferative activity of the tested peptides towards human keratinocytes (A) and fibroblasts (B). Cells were incubated for 72 hours in serum-free DMEM medium in the presence of peptides applied at concentrations of 1,10, 25 and 50 μg/mL, respectively. The data represents results of MTT assay expressed as the percentage of the cell viability in comparison to their control sample (cells incubated in serum-free DMEM without tested peptides), additional positive control corresponds to the cells incubated in the presence of 10% FCS. All experiments were performed independently in triplicate. *P < 0.05, **P < 0.01, ***P < 0.001 vs. control.
In order to evaluate a long-term effect of peptides, experiments were carried out for 72 hours. Before addition of the tested compounds, the cell medium was exchanged for the fresh one not containing any serum or antibiotic.

[7] = test system: human primary dermal fibroblasts; experiment: Cell proliferation assay (MTT); assay type: cell-based; conditions: 72 h, serum-free DMEM, dose-response relationship, peptide at 50 μg/mL
Procedure: Biopsies of healthy human skin were obtained aseptically from three donors (47–69 years old) undergoing circumcision after obtaining their written informed consent. All the procedures were approved by the Ethics Committee of Medical University of Gdansk (NKEBN/483/2011. Issued: 2011-12-19). The samples were washed several times with sterile PBS (Sigma-Aldrich, Germany) containing antibiotic (200 U/mL penicillin and 200 μg/mL streptomycin), after which, the subcutaneous tissue was cut off with a sharp blade. The resulting sheets were cut into small fragments, washed two times with sterile PBS and treated with 6 U/mL dispase II (BD, USA) overnight at 4°C to separate epidermis and dermis. The dermis was then digested with 1.0 mg/mL collagenase type I (from Clostridium histolyticum Sigma-Aldrich, Germany) for 2 hours at 37°C to isolate fibroblasts. Cells were used between the 2nd and 4th passage in all experiments.
as §5
as §6, with “At the end of the experiment cells were treated with 20 μL of MTT (5 mg/mL in PBS). After 3 h at 37°C under 5% CO2 medium was discarded and replaced by 6mM HCl in isopropanol.” left out, “The optical density reflects the level of cell viability as MTT is converted in purple formazan product only in the presence of viable mitochondria of the living cells.” left out
Fig 1 Pro-proliferative activity of the tested peptides towards human keratinocytes (A) and fibroblasts (B). […] The data represents results of MTT assay expressed as the percentage of the cell viability in comparison to their control sample (cells incubated in serum-free DMEM without tested peptides), additional positive control corresponds to the cells incubated in the presence of 10% FCS. […]

[8] = Circular dichroism, alpha-helical content; assay type: physicochemical; conditions: CD, mean residue ellipticity at 222 nm (Eq 1), peptide 0.4 mg/ml in 30 mM SDS, room temperature
Procedure: Circullar dichroism spectra of analyzed compounds were recorded on a Jasco J-815 spectropolarimeter using a quartz cell of 1 mm path length between 195–260 nm at room temperature. Peptides at concentration of 0.4 mg/ml were dissolved in water or 30 mM SDS solution. SDS micelle system was used as the simplified model of negatively charged lipid membrane. On the basis of the obtained results the alpha-helical content was determined from the mean residue ellipticities at 222 nm according to Eq 1: %Helix=([θ]obs/([θ]helixx(1−2.57/l))x100, (1) where [θ] obs is the experimentally observed mean-residue ellipticity at 222 nm, [θ]helix is the theoretical ellipticity of peptide of infinite length with a 100% helix population, taken as -39 500 deg·cm^2/dmol, and l is the number of peptide bonds.
Circular dichroism method was applied to obtain a basic information about the secondary structure of the synthesized compounds (with the exception of CAR, CAR3, DAL, CTEN2) in two chemical environments, water and 30 mM SDS. As expected, all the tested compounds in water adopted a random-coil structure, while in the presence of 30 mM SDS most of them formed α-helices with characteristic negative minima around 208 and 220 nm. […] The examples of CD spectra for selected peptides could be seen in supporting information (Figure A in S1 File). On the basis of the experimentally obtained values of the mean residue ellipticities of peptides at 222 nm their alpha-helical content was calculated according to the Eq 1 (Table 1).

**Q.** What does the source list for CC(C)C[C@H](NC(=O)CNC(=O)[C@@H](N)CCC(=O)O)C(=O)N[C@@H](CCC(=O)O)C(=O)N1CCC[C@H]1C(=O)NCC(=O)NCCOCCOCC(=O)N[C@@H](CCCCN)C(=O)N[C@@H](CCCCN)C(=O)N[C@H](C(=O)N[C@H](C(=O)N[C@@H](Cc1ccccc1)C(=O)N[C@@H](Cc1c[nH]c2ccccc12)C(=O)N[C@H](C(=O)N[C@@H](CCCCN)C(=O)N[C@@H](Cc1ccccc1)C(=O)N[C@@H](CCCCN)C(N)=O)C(C)C)C(C)C)C(C)C [CTEN2-PEG-KSLW] (HELM PEPTIDE1{E.G.L.E.P.G.[O=C(COCCOCCN[*:1])[*:2]].K.K.V.V.F.W.V.K.F.K.[am]}$$$$V2.0; N-terminus assumed)?
**A.** MIC B. cereus [1]: >125 µg/mL; MIC E.coli [2]: >125 µg/mL; MIC P. aeruginosa [3]: >125 µg/mL; MIC S.aureus [4]: >125 µg/mL; MIC S. epidermidis [5]: 7.8 µg/mL (≈ 3.83 µM); Effect on HaCaT proliferation (MTT), in words [6]: noticeable pro-proliferatory activity; Effect on fibroblast cell count (MTT), in words [7]: highest cell count; α-helicity [8]: 27%
